Measurements published in patent publication US20260184710A1, “CASITAS B-LINEAGE LYMPHOMA PROTOONCOGENE B (CBL-B) DEGRADING COMPOUNDS AND ASSOCIATED METHODS OF USE” (Arvinas Operations, Inc., priority 2022, published 2026).

Molecular target: T1, Cbl-b (Homo sapiens, UniProt Q13191)
T1 construct: Cbl-b-HiBit KI Jurkat Cells were purchased from Promega; host or cells: Cbl-b-HiBiT knock-in Jurkat cells
Assay: Cbl-b Degradation Method B (Nano-Glo HiBiT lytic detection)
Assay type: cell-based
Conditions: Cbl-b-HiBit KI Jurkat Cells, incubated at least 6-24 hours; for DC50: half maximal degradation, read-out: Cbl-b Degredation Method B IC50; for Dmax: maximum degradation observed, read-out: Cbl-b Degredation Method B Dmax (%)
How it was run: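 An 11-point, 3-fold compound dilution was applied for 6-24 hours to Jurkat cells carrying HiBiT-tagged endogenous Cbl-b. Lytic HiBiT luminescence quantified residual protein. Outputs are DC50 and Dmax relative to DMSO control.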

T1 sequence (Q13191 whole entry): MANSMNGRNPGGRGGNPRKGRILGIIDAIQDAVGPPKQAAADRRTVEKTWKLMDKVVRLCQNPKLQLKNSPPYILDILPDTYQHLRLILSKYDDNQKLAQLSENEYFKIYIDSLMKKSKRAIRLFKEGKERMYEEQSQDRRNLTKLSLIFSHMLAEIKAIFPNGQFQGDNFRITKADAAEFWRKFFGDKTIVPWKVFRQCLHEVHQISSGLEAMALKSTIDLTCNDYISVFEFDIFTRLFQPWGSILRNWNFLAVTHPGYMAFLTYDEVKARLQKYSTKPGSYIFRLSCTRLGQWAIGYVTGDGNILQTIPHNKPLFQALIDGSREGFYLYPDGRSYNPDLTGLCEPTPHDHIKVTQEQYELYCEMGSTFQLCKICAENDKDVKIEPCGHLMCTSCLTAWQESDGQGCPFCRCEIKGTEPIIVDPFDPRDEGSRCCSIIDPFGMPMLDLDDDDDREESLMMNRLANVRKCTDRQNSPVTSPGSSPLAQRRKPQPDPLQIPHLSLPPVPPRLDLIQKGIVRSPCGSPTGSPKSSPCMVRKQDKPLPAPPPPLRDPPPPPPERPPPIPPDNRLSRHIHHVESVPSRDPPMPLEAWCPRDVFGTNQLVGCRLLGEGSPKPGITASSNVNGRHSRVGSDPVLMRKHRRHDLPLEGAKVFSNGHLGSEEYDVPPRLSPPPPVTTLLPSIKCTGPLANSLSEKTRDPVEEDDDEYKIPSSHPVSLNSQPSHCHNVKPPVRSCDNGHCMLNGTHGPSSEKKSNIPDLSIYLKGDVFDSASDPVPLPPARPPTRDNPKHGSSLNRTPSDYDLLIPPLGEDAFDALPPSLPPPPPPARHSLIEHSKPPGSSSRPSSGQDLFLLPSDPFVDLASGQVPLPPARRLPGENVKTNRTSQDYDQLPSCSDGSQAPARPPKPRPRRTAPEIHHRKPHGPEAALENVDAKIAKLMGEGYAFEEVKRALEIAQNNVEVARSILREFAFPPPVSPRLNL

Structure (SMILES): Cn1cnnc1CC1(c2cccc(N3Cc4c(cc(CNC5CC(Oc6ccc7c(c6)C(=O)N(C6CCC(=O)NC6=O)C7=O)C5)cc4C(F)(F)F)C3=O)c2)COC1 (centres unmarked) [Example 37, 2-(2,6-dioxopiperidin-3-yl)-5-[3-({[2-(3-{3-[(4-methyl-4H-1,2,4-triazol-3-yl)methyl]oxetan-3-yl}phenyl)-3-oxo-7-(trifluoromethyl)-2,3-dihydro-1H-isoindol-5-yl]methyl}amino)cyclobutoxy]-2,3-dihydro-1H-isoindole-1,3-dione]
- DC50: > 0.5 µM

Structure (SMILES): Cn1cnnc1CC1(c2cccc(N3Cc4c(cc(CNC5CCN(c6ccc7c(c6)C(=O)N(C6CCC(=O)NC6=O)C7=O)CC5)cc4C(F)(F)F)C3=O)c2)COC1 (centres unmarked) [Example 38, 2-(2,6-dioxopiperidin-3-yl)-5-[4-({[2-(3-{3-[(4-methyl-4H-1,2,4-triazol-3-yl)methyl]oxetan-3-yl}phenyl)-3-oxo-7-(trifluoromethyl)-2,3-dihydro-1H-isoindol-5-yl]methyl}amino)piperidin-1-yl]-2,3-dihydro-1H-isoindole-1,3-dione]
- DC50: > 0.5 µM

Structure (SMILES): Cn1cnnc1CC1(c2cccc(N3Cc4c(cc(CN5CCC(CCN6CCN(c7ccc8c(c7)C(=O)N(C7CCC(=O)NC7=O)C8=O)CC6)CC5)cc4C(F)(F)F)C3=O)c2)COC1 (centres unmarked) [Example 39, 2-(2,6-dioxopiperidin-3-yl)-5-{4-[2-(1-{[2-(3-{3-[(4-methyl-4H-1,2,4-triazol-3-yl)methyl]oxetan-3-yl}phenyl)-3-oxo-7-(trifluoromethyl)-2,3-dihydro-1H-isoindol-5-yl]methyl}piperidin-4-yl)ethyl]piperazin-1-yl}-2,3-dihydro-1H-isoindole-1,3-dione]
- DC50: > 0.5 µM

Structure (SMILES): Cn1cnnc1CC1(c2cccc(N3Cc4c(cc(CN5CCC(COCC6CCN(c7ccc8c(c7)C(=O)N(C7CCC(=O)NC7=O)C8=O)CC6)CC5)cc4C(F)(F)F)C3=O)c2)COC1 (centres unmarked) [Example 40, 2-(2,6-dioxopiperidin-3-yl)-5-(4-{[(1-{[2-(3-{3-[(4-methyl-4H-1,2,4-triazol-3-yl)methyl]oxetan-3-yl}phenyl)-3-oxo-7-(trifluoromethyl)-2,3-dihydro-1H-isoindol-5-yl]methyl}piperidin-4-yl)methoxy]methyl}piperidin-1-yl)-2,3-dihydro-1H-isoindole-1,3-dione]
- DC50: > 0.5 µM

Structure (SMILES): Cn1cnnc1CC1(c2cccc(N3Cc4c(cc(CN5CCN(c6ccc7c(c6)CN(C6CCC(=O)NC6=O)C7=O)CC5)cc4C(F)(F)F)C3=O)c2)COC1 (centres unmarked) [Example 41, 3-[5-(4-{[2-(3-{3-[(4-methyl-4H-1,2,4-triazol-3-yl)methyl]oxetan-3-yl}phenyl)-3-oxo-7-(trifluoromethyl)-2,3-dihydro-1H-isoindol-5-yl]methyl}piperazin-1-yl)-1-oxo-2,3-dihydro-1H-isoindol-2-yl]piperidine-2,6-dione]
- DC50: 0.005 to 0.05 µM
- Dmax: > 70%

Structure (SMILES): Cn1cnnc1CC1(c2cccc(N3Cc4c(cc(CN5CCC6(CC5)CN(c5cccc7c5CN(C5CCC(=O)NC5=O)C7=O)C6)cc4C(F)(F)F)C3=O)c2)COC1 (centres unmarked) [Example 42, 3-[4-(7-{[2-(3-{3-[(4-methyl-4H-1,2,4-triazol-3-yl)methyl]oxetan-3-yl}phenyl)-3-oxo-7-(trifluoromethyl)-2,3-dihydro-1H-isoindol-5-yl]methyl}-2,7-diazaspiro[3.5]nonan-2-yl)-1-oxo-2,3-dihydro-1H-isoindol-2-yl]piperidine-2,6-dione]
- DC50: > 0.5 µM

Structure (SMILES): Cn1cnnc1CC1(c2cccc(N3Cc4c(cc(CN[C@H]5CC[C@H](N6CCN(c7ccc8c(c7)C(=O)N(C7CCC(=O)NC7=O)C8=O)CC6)CC5)cc4C(F)(F)F)C3=O)c2)COC1 (some centres unmarked) [Example 43, 2-(2,6-dioxopiperidin-3-yl)-5-{4-[(1r,4r)-4-({[2-(3-{3-[(4-methyl-4H-1,2,4-triazol-3-yl)methyl]oxetan-3-yl}phenyl)-3-oxo-7-(trifluoromethyl)-2,3-dihydro-1H-isoindol-5-yl]methyl}amino)cyclohexyl]piperazin-1-yl}-2,3-dihydro-1H-isoindole-1,3-dione]
- DC50: 0.005 to 0.05 µM
- Dmax: < 35%

Structure (SMILES): Cn1cnnc1CC1(c2cccc(N3Cc4c(cc(CN5CCN([C@H]6CC[C@H](Nc7ccc8c(c7)C(=O)N(C7CCC(=O)NC7=O)C8=O)CC6)CC5)cc4C(F)(F)F)C3=O)c2)COC1 (some centres unmarked) [Example 44, 2-(2,6-dioxopiperidin-3-yl)-5-{[(1r,4r)-4-(4-{[2-(3-{3-[(4-methyl-4H-1,2,4-triazol-3-yl)methyl]oxetan-3-yl}phenyl)-3-oxo-7-(trifluoromethyl)-2,3-dihydro-1H-isoindol-5-yl]methyl}piperazin-1-yl)cyclohexyl]amino}-2,3-dihydro-1H-isoindole-1,3-dione]
- DC50: > 0.5 µM

Structure (SMILES): Cn1cnnc1CC1(c2cccc(N3Cc4c(cc(CN5CCC6(CC5)CCN(CC5CCN(c7ccc8c(c7)C(=O)N(C7CCC(=O)NC7=O)C8=O)CC5)CC6)cc4C(F)(F)F)C3=O)c2)COC1 (centres unmarked) [Example 45, 2-(2,6-dioxopiperidin-3-yl)-5-{4-[(9-{[2-(3-{3-[(4-methyl-4H-1,2,4-triazol-3-yl)methyl]oxetan-3-yl}phenyl)-3-oxo-7-(trifluoromethyl)-2,3-dihydro-1H-isoindol-5-yl]methyl}-3,9-diazaspiro[5.5]undecan-3-yl)methyl]piperidin-1-yl}-2,3-dihydro-1H-isoindole-1,3-dione]
- DC50: > 0.5 µM

Structure (SMILES): Cn1cnnc1CC1(c2cccc(N3Cc4c(cc(CN5CCC(CN6CCN(CC7CCN(c8ccc9c(c8)C(=O)N(C8CCC(=O)NC8=O)C9=O)CC7)CC6)CC5)cc4C(F)(F)F)C3=O)c2)COC1 (centres unmarked) [Example 46, 2-(2,6-dioxopiperidin-3-yl)-5-[4-({4-[(1-{[2-(3-{3-[(4-methyl-4H-1,2,4-triazol-3-yl)methyl]oxetan-3-yl}phenyl)-3-oxo-7-(trifluoromethyl)-2,3-dihydro-1H-isoindol-5-yl]methyl}piperidin-4-yl)methyl]piperazin-1-yl}methyl)piperidin-1-yl]-2,3-dihydro-1H-isoindole-1,3-dione]
- DC50: > 0.5 µM

Structure (SMILES): Cn1cnnc1CC1(c2cccc(N3Cc4c(cc(CN5CCN(CCCOc6ccc7c(c6)C(=O)N(C6CCC(=O)NC6=O)C7=O)CC5)cc4C(F)(F)F)C3=O)c2)COC1 (centres unmarked) [Example 47, 2-(2,6-dioxopiperidin-3-yl)-5-[3-(4-{[2-(3-{3-[(4-methyl-4H-1,2,4-triazol-3-yl)methyl]oxetan-3-yl}phenyl)-3-oxo-7-(trifluoromethyl)-2,3-dihydro-1H-isoindol-5-yl]methyl}piperazin-1-yl)propoxy]-2,3-dihydro-1H-isoindole-1,3-dione]
- DC50: > 0.5 µM

Structure (SMILES): Cn1cnnc1CC1(c2cccc(N3Cc4c(cc(CN5CC(C6CN(c7ccc8c(c7)C(=O)N(C7CCC(=O)NC7=O)C8=O)C6)C5)cc4C(F)(F)F)C3=O)c2)COC1 (centres unmarked) [Example 48, 2-(2,6-dioxopiperidin-3-yl)-5-(1′-{[2-(3-{3-[(4-methyl-4H-1,2,4-triazol-3-yl)methyl]oxetan-3-yl}phenyl)-3-oxo-7-(trifluoromethyl)-2,3-dihydro-1H-isoindol-5-yl]methyl}-[3,3′-biazetidin]-1-yl)-2,3-dihydro-1H-isoindole-1,3-dione]
- DC50: 0.05 to 0.5 µM
- Dmax: 35 to 70%

Structure (SMILES): Cn1cnnc1CC1(c2cccc(N3Cc4c(cc(CN5CC6(CCN(c7ccc8c(c7)C(=O)N(C7CCC(=O)NC7=O)C8=O)CC6)C5)cc4C(F)(F)F)C3=O)c2)COC1 (centres unmarked) [Example 49, 2-(2,6-dioxopiperidin-3-yl)-5-(2-{[2-(3-{3-[(4-methyl-4H-1,2,4-triazol-3-yl)methyl]oxetan-3-yl}phenyl)-3-oxo-7-(trifluoromethyl)-2,3-dihydro-1H-isoindol-5-yl]methyl}-2,7-diazaspiro[3.5]nonan-7-yl)-2,3-dihydro-1H-isoindole-1,3-dione]
- DC50: > 0.5 µM

Structure (SMILES): COc1cc(N2CCN(CC3CCN(Cc4cc5c(c(C(F)(F)F)c4)CN(c4cccc(C6(Cc7nncn7C)COC6)c4)C5=O)CC3)CC2)cc2c1C(=O)N(C1CCC(=O)NC1=O)C2=O (centres unmarked) [Example 51, 2-(2,6-dioxopiperidin-3-yl)-4-methoxy-6-{4-[(1-{[2-(3-{3-[(4-methyl-4H-1,2,4-triazol-3-yl)methyl]oxetan-3-yl}phenyl)-3-oxo-7-(trifluoromethyl)-2,3-dihydro-1H-isoindol-5-yl]methyl}piperidin-4-yl)methyl]piperazin-1-yl}-2,3-dihydro-1H-isoindole-1,3-dione]
- DC50: > 0.5 µM

Structure (SMILES): COc1cc(N2CCN(Cc3cc4c(c(C(F)(F)F)c3)CN(c3cccc(C5(Cc6nncn6C)COC5)c3)C4=O)CC2)cc2c1C(=O)N(C1CCC(=O)NC1=O)C2=O (centres unmarked) [Example 52, 2-(2,6-dioxopiperidin-3-yl)-4-methoxy-6-(4-{[2-(3-{3-[(4-methyl-4H-1,2,4-triazol-3-yl)methyl]oxetan-3-yl}phenyl)-3-oxo-7-(trifluoromethyl)-2,3-dihydro-1H-isoindol-5-yl]methyl}piperazin-1-yl)-2,3-dihydro-1H-isoindole-1,3-dione]
- DC50: > 0.5 µM

Structure (SMILES): COc1ccc(C(=O)N2CCC(CN3CCN(Cc4cc5c(c(C(F)(F)F)c4)CN(c4cccc(C6(Cc7nncn7C)COC6)c4)C5=O)CC3)CC2)cc1N1CCC(=O)NC1=O [Example 53, 1-(2-methoxy-5-{4-[(4-{[2-(3-{3-[(4-methyl-4H-1,2,4-triazol-3-yl)methyl]oxetan-3-yl}phenyl)-3-oxo-7-(trifluoromethyl)-2,3-dihydro-1H-isoindol-5-yl]methyl}piperazin-1-yl)methyl]piperidine-1-carbonyl}phenyl)-1,3-diazinane-2,4-dione]
- DC50: > 0.5 µM

Structure (SMILES): Cn1cnnc1CC1(c2cccc(N3Cc4c(cc(CN5CCN(CC6CCN(c7ccc(F)c(C(=O)NC8CCC(=O)NC8=O)c7)CC6)CC5)cc4C(F)(F)F)C3=O)c2)COC1 (centres unmarked) [Example 54, N-(2,6-dioxopiperidin-3-yl)-2-fluoro-5-{4-[(4-{[2-(3-{3-[(4-methyl-4H-1,2,4-triazol-3-yl)methyl]oxetan-3-yl}phenyl)-3-oxo-7-(trifluoromethyl)-2,3-dihydro-1H-isoindol-5-yl]methyl}piperazin-1-yl)methyl]piperidin-1-yl}benzamide]
- DC50: > 0.5 µM
